Laboratory results: the supplement of paper PMC10307832

Legend:
Assay in all cases: relative viability (nuclei count vs DMSO), 5 days (fraction); higher = more cells survive
[1] = compound: O[C@H]1CC[C@H](Nc2ncc3nc(Nc4c(F)cc(F)cc4F)n([C@H]4CCOC4)c3n2)CC1 [Tanzisertib] + Cc1nc(NC(=O)N2CCC[C@H]2C(N)=O)sc1-c1ccnc(C(C)(C)C(F)(F)F)c1 [Alpelisib] (partner 2 µM)
Summary of the method: (§1)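 Cells from lung cancer lines were seeded into 1536-well plates and, one day later, dosed by pin tool. Treatments were either a single drug or a fixed dose of an anchor drug with five library-drug doses (not always all listed) in √10 steps. After 5 days, nuclei were stained in a one-step fixation (final 0.05% Triton X-100, 1% formaldehyde, 1 ug/ml Hoechst) and counted on 4× images, and relative viability is the treated-to-vehicle nuclei ratio, as the median of duplicate plates.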

[2] = compound: O[C@H]1CC[C@H](Nc2ncc3nc(Nc4c(F)cc(F)cc4F)n([C@H]4CCOC4)c3n2)CC1 [Tanzisertib] + COc1cccc2cc(-c3nc([C@H]4CC[C@H](C(=O)O)CC4)n4ncnc(N)c34)[nH]c12 [OSI-027] (partner 0.5 µM)
Summary of the method: as §1

[3] = compound: O[C@H]1CC[C@H](Nc2ncc3nc(Nc4c(F)cc(F)cc4F)n([C@H]4CCOC4)c3n2)CC1 [Tanzisertib] + C[C@@H](Oc1cc(-c2cnn(C3CCNCC3)c2)cnc1N)c1c(Cl)ccc(F)c1Cl [Crizotinib] (partner 1 µM)
Summary of the method: as §1

[4] = compound: O[C@H]1CC[C@H](Nc2ncc3nc(Nc4c(F)cc(F)cc4F)n([C@H]4CCOC4)c3n2)CC1 [Tanzisertib] + COc1cc2c(Oc3ccc(NC(=O)C4(C(=O)Nc5ccc(F)cc5)CC4)cc3F)ccnc2cc1OCCCN1CCOCC1 [Foretinib] (partner 0.25 µM)
Summary of the method: as §1

Cell Line | relative viability ([1]; first compound 0.08 µM) | relative viability ([1]; first compound 0.253 µM) | relative viability ([1]; first compound 0.8 µM) | relative viability ([1]; first compound 2.53 µM) | relative viability ([1]; first compound 8 µM) | relative viability ([2]; first compound 0.08 µM) | relative viability ([2]; first compound 0.253 µM) | relative viability ([2]; first compound 0.8 µM) | relative viability ([2]; first compound 2.53 µM) | relative viability ([2]; first compound 8 µM) | relative viability ([3]; first compound 0.08 µM) | relative viability ([3]; first compound 0.253 µM) | relative viability ([3]; first compound 0.8 µM) | relative viability ([3]; first compound 2.53 µM) | relative viability ([3]; first compound 8 µM) | relative viability ([4]; first compound 0.08 µM) | relative viability ([4]; first compound 0.253 µM) | relative viability ([4]; first compound 0.8 µM) | relative viability ([4]; first compound 2.53 µM) | relative viability ([4]; first compound 8 µM)
HCC-827 | 1.08 | 0.97 | 0.946 | 0.895 | 0.391 | 0.857 | 0.763 | 0.775 | 0.678 | 0.44 | 0.903 | 0.964 | 0.931 | 0.892 | 0.559 | 1.13 | 1.1 | 1.07 | 0.814 | 0.389
HOP-62 | 0.956 | 1.1 | 1.02 | 1.11 | 1.16 | 0.845 | 0.868 | 0.76 | 0.833 | 0.848 | 0.945 | 0.964 | 1 | 1.05 | 0.824 | 0.99 | 1.07 | 0.986 | 1.22 | 1.32
LC-2-ad | 0.902 | 0.888 | 0.939 | 0.876 | 0.815 | 1.02 | 0.744 | 0.911 | 0.915 | 0.606 | 0.521 | 0.501 | 0.415 | 0.43 | 0.426 | 0.924 | 0.913 | 0.908 | 0.877 | 0.884
LCLC-97TM1 |  | 0.276 | 0.271 | 0.238 | 0.292 | 0.541 | 0.435 | 0.495 | 0.368 | 0.517 |  | 0.331 | 0.417 | 0.262 | 0.427 | 0.928 | 0.945 | 0.89 | 0.854 | 0.946
LCLC-103H | 0.983 | 0.94 | 0.965 | 0.981 | 0.923 | 0.458 | 0.44 | 0.438 | 0.427 | 0.509 | 1.06 | 1.01 | 1.11 | 1.09 | 1.01 | 0.79 | 0.784 | 0.806 | 0.71 | 0.765
LK-2 | 1.12 | 0.946 | 1.16 | 1.07 | 1.12 | 0.26 | 0.209 | 0.193 | 0.16 | 0.186 | 0.233 | 0.271 | 0.232 | 0.244 | 0.235 | 1.26 | 1.01 | 1.11 | 1.03 | 1.46
LOU-NH91 | 0.755 | 0.706 | 0.716 | 0.694 | 0.549 | 0.785 | 0.758 | 0.756 | 0.671 | 0.489 | 0.716 | 0.734 | 0.723 | 0.464 | 0.593 | 0.914 | 0.946 | 0.903 | 0.87 | 0.639
LU99A | 0.549 | 0.519 | 0.521 | 0.503 | 0.456 | 0.305 | 0.316 | 0.296 | 0.29 | 0.302 | 0.557 | 0.567 | 0.513 | 0.638 | 0.586 | 0.828 | 0.81 | 0.798 | 0.765 | 0.837
